# Test results taken from patent US20260184707A1, “PHARMACEUTICAL COMPOUNDS FOR THE TREATMENT OF COMPLEMENT MEDIATED DISORDERS” (ALEXION PHARMACEUTICALS, INC., priority 2022, published 2026).
# Molecular target: T1, Human complement C1s enzyme (Homo sapiens, UniProt P09871)
# T1 construct: purified from human serum, Complement Technology, Inc; purchased Complement Technology, Inc; host or cells: human serum (plasma-derived native protein)
# T1 sequence (P09871 438-688 limits assumed): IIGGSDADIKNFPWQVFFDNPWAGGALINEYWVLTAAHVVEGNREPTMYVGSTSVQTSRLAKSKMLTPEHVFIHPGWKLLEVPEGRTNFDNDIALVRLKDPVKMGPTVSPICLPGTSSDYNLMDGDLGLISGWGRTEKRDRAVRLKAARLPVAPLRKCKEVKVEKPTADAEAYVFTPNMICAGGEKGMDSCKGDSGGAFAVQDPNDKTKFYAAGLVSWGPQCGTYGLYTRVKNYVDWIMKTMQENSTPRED
# T1 sequence (P09871 16-437 partner limits assumed): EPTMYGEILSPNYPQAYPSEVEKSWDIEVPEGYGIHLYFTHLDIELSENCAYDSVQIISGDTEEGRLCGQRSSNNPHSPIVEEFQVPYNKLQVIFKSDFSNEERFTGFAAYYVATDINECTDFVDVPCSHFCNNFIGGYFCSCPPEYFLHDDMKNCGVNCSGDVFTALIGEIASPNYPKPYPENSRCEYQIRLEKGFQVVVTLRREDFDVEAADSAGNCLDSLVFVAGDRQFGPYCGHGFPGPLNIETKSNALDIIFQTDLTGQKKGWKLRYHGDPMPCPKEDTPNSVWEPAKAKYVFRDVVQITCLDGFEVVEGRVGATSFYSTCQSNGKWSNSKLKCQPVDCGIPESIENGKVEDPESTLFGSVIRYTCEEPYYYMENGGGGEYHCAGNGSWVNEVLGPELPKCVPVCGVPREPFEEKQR
# Test: Human C1s enzyme assay
# Assay type: biochemical
# Conditions: human complement C1s enzyme 1.16 nM, substrate Z-L-Lys-SBzl, A405; read-out: IC50 (Stars)
# Method in brief: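 Serum-purified human C1s (1.16 nM final) preincubated 5 min at room temperature with compound in 50 mM Tris, 1 M NaCl, pH 7.5. Z-L-Lys-SBzl and DTNB added at 100 μM each; A405 recorded every 30 s. IC50 from nonlinear regression of reaction rates versus compound concentration.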
row,IC50,Compound
1,< 100 nM,"Cc1cnc(CNc2ncc(N3CCCCC3)n(CC(=O)NCc3cc4cnccc4[nH]3)c2=O)o1 [Compound 474, N-((1H-pyrrolo[3,2-c]pyridin-2-yl)methyl)-2-(3-(((5-methyl-oxazol-2-yl)methyl)amino)-2-oxo-6-(piperidin-1-yl)pyr-azin-1(2H)-yl)acetamide]"
2,< 100 nM,"O=C(Cn1c(-c2ccccc2)ncc(NC(=O)c2ccc(-c3ncco3)cc2)c1=O)NCc1cc2cnccc2[nH]1 [Compound 108, N-(1-(2-(((1H-pyrrolo[3,2-c]pyridin-2-yl)methyl)amino)-2-oxoethyl)-6-oxo-2-phenyl-1,6-dihydropyrimidin-5-yl)-4-(oxazol-2-yl)benzamide]"
3,< 100 nM,"O=C(Cn1c(-c2ccccc2)ncc(NC(=O)c2ccc(-c3ccsc3)cc2)c1=O)NCc1cc2cnccc2[nH]1 [Compound 75, N-(1-(2-(((1H-pyrrolo[3,2-c]pyridin-2-yl)methyl)amino)-2-oxoethyl)-6-oxo-2-phenyl-1,6-dihydropyrimidin-5-yl)-4-(thiophen-3-yl)benzamide]"
4,< 100 nM,"Cc1cccc(-c2ncc(N[C@H](C)c3ccc4oc5ccccc5c4c3)c(=O)n2CC(=O)NCc2cc3cnccc3[nH]2)c1 [Compound 292, (R)-N-((1H-pyrrolo[3,2-c]pyr-idin-2-yl)methyl)-2-(5-((1-(dibenzo[b,d]furan-2-yl)ethyl)-amino)-6-oxo-2-(m-tolyl)pyr-imidin-1(6H)-yl)acetamide]"
5,< 100 nM,"O=C(Cn1c(-c2ccncc2)ncc(NCc2ccc3oc4ccccc4c3c2)c1=O)NCc1cc2cnccc2[nH]1 [Compound 289, N-((1H-pyrrolo[3,2-c]pyridin-2-yl)methyl)-2-(5-((dibenzo [b,d]furan-2-ylmethyl)amino)-6-oxo-2-(pyridin-4-yl)pyrimi-din-1(6H)-yl)acetamide]"
6,< 100 nM,"O=C(Cn1c(-c2ccccc2)ncc(NCCCO[C@@H]2CO[C@H]3[C@@H]2OC[C@H]3O)c1=O)NCc1cc2cnccc2[nH]1 [Compound 190, N-((1H-pyrrolo[3,2-c]pyridine-2-yl)methyl)-2-(5-((3-(((3R,3aR,6R,6aR)-6-hydroxyhexahydrofuro[3,2-b]furan-3-yl)oxy)propyl)amino)-6-oxo-2-phenylpyrimidin-1(6H)-yl)acetamide]"
7,< 100 nM,"C[C@@H](Nc1cnc(N2CCCCC2)n(CC(=O)NCc2cc3cnccc3[nH]2)c1=O)c1cnc(-c2ccccc2)o1 [Compound 453, (R)—N-((1H-Pyrrolo[3,2-c]pyridine-2-yl)methyl)-2-(6-oxo-5-((1-(2-phenyloxazol-5-yl)ethyl)amino)-2-(piperidin-1-yl)pyrimidin-1(6H)-yl)acetamide]"
8,< 100 nM,"O=C(Cn1c(-c2ccc(S(F)(F)(F)(F)F)cc2)ncc(NCCCc2ccccc2)c1=O)NCc1cc2cnccc2[nH]1 [Compound 96, N-((1H-pyrrolo[3,2-c]pyridine-2-yl)methyl)-2-(6-oxo-2-(4-(pentafluoro-λ^6-sulfanyl)phenyl)-5-((3-phenylpropyl)amino)pyrimidin-1(6H)-yl)acetamide]"
9,< 100 nM,"C[C@@H](Nc1cnc(N2CCCC(F)C2)n(CC(=O)NCc2cc3cnccc3[nH]2)c1=O)c1ccc2oc3ccccc3c2c1 (stereo partly drawn) [Compound 398, N-((1H-pyrrolo[3,2-c]pyridin-2-yl)methyl)-2-(5-(((R)-1-(dibenzo[b,d]furan-2-yl)ethyl)-amino)-2-(3-fluoropiperidin-1-yl)-6-oxopyrimidin-1(6H)-yl)-acetamide]"
10,< 100 nM,"O=C(Cn1c(N2CC(F)(F)C2)ncc(NCc2ccc3oc4ccccc4c3c2)c1=O)NCc1cc2cnccc2[nH]1 [Compound 281, N-((1H-pyrrolo[3,2-c]pyridin-2-yl)methyl)-2-(5-((dibenzo [b,d]furan-2-ylmethyl)amino)-2-(3,3-difluoroazetidin-1-yl)-6-oxopyrimidin-1(6H)-yl)acet-amide]"
11,< 100 nM,"C[C@@H](Nc1cnc(-c2ccccn2)n(CC(=O)NCc2cc3cnccc3[nH]2)c1=O)c1ccc2oc3ccccc3c2c1 [Compound 323, (R)-N-((1H-pyrrolo[3,2-c]pyridin-2-yl)methyl)-2-(5-((1-(dibenzo[b,d]furan-2-yl)ethyl)-amino)-6-oxo-2-(pyridin-2-yl)-pyrimidin-1(6H)-yl)acetamide]"
12,< 100 nM,"C[C@@H](Nc1cnc(-c2ccccc2)n(CC(=O)NCc2cc3cnccc3[nH]2)c1=O)c1ccc(-c2ccccc2F)cc1 [Compound 307, (R)-N-((1H-pyrrolo[3,2-c]pyridin-2-yl)methyl)-2-(5-((1-(2′-fluoro-[1,1′-biphenyl]-4-yl)ethyl)amino)-6-oxo-2-phen-ylpyrimidin-1(6H)-yl)acet-amide]"
13,< 100 nM,"C[C@@H](Nc1cnc(-c2ccccc2F)n(CC(=O)NCc2cc3cnccc3[nH]2)c1=O)c1cc2c(cc1F)oc1ccccc12 [Compound 396, (R)-N-((1H-pyrrolo[3,2-c]pyridin-2-yl)methyl)-2-(5-((1-(3-fluorodibenzo[b,d]furan-2-yl)ethyl)amino)-2-(2-fluoro-phenyl)-6-oxopyrimidin-1(6H)-yl)acetamide]"
14,< 100 nM,"O=C(Cn1c(-c2ccccc2)ncc(NC(=O)c2nc(-c3ccccc3)cs2)c1=O)NCc1cc2cnccc2[nH]1 [Compound 208, N-(1-(2-(((1H-pyrrolo[3,2-c]pyridin-2-yl)methyl)amino)-2-oxoethyl)-6-oxo-2-phenyl-1,6-dihydropyrimidin-5-yl)-4-phen-ylthiazole-2-carboxamide]"
15,< 100 nM,"C[C@H](Nc1cnc(C2CCCC2)n(CC(=O)NCc2cc3cnccc3[nH]2)c1=O)c1ccc2oc3ccccc3c2c1 [Compound 277, (S)-N-((1H-pyrrolo[3,2-c]pyr-idin-2-yl)methyl)-2-(2-cyclo-pentyl-5-((1-(dibenzo[b,d]furan-2-yl)ethyl)amino)-6-oxo-pyrimidin-1(6H)-yl)acetamide]"
16,100 to 1000 nM,"C[C@@H](NC(=O)Cn1c(-c2ccccc2)cnc(NCCCc2ccccc2)c1=O)c1cc2cnccc2[nH]1 [Compound 12, (R)-N-(1-(1H-pyrrolo[3,2-c]pyridin-2-yl)ethyl)-2-(2-oxo-6-phenyl-3-((3-phenylpropyl)-amino)pyrazin-1(2H)-yl)-acetamide]"
17,< 100 nM,"O=C(Cn1cncc(NCc2cc3ccccc3o2)c1=O)NCc1cc2cnccc2[nH]1 [Compound 486, N-((1H-pyrrolo[3,2-c]pyridin-2-yl)methyl)-2-(5-((benzofuran-2-ylmethyl)amino)-6-oxopyr-imidin-1(6H)-yl)acetamide]"
18,< 100 nM,"C[C@@H](Nc1nnc(-c2ccccc2F)n(CC(=O)NCc2cc3cnccc3[nH]2)c1=O)c1ccc2oc3ccccc3c2c1 [Compound 390, (R)—N-((1H-pyrrolo[3,2-c]pyridine-2-yl)methyl)-2-(6-((1-(dibenzo[b,d]furan-2-yl)ethyl)amino)-3-(2-fluorophenyl)-5-oxo-1,2,4-triazin-4(5H)-yl)acetamide]"
19,< 100 nM,"C[C@@H](Nc1cnc(-c2ccccn2)n(CC(=O)NCc2cc3cnccc3[nH]2)c1=O)c1ccc(-c2ccccc2F)cc1 [Compound 447, (R)-N-((1H-pyrrolo[3,2-c]pyridin-2-yl)methyl)-2-(5-((1-(2′-fluoro-[1,1′-biphenyl]-4-yl)ethyl)amino)-6-oxo-2-(pyridin-2-yl)pyrimidin-1(6H)-yl)acetamide]"
20,< 100 nM,"C[C@@H](Nc1nnc(N2CCCCC2)n(CC(=O)NCc2cc3cnccc3[nH]2)c1=O)c1ccc2oc3ccccc3c2c1 [Compound 491, (R)-N-((1H-pyrrolo[3,2-c]pyridin-2-yl)methyl)-2-(6-((1-(dibenzo[b,d]furan-2-yl)ethyl)-amino)-5-oxo-3-(piperidin-1-yl)-1,2,4-triazin-4(5H)-yl)-acetamide]"
21,< 100 nM,"O=C(Cn1c(-c2ccccc2)ncc(NCCCc2cc3ccc2CCc2ccc(cc2)CC3)c1=O)NCc1cc2cnccc2[nH]1 [Compound 113, 2-(5-((3-(1,4(1,4)-dibenzenacyclohexaphane-1^2-yl)propyl)amino)-6-oxo-2-phenylpyrimidin-1(6H)-yl)-N-((1H-pyrrolo[3,2-c]pyridine-2-yl)methyl)acetamide]"
22,> 1000 nM,"C[C@H](C(=O)NCc1cc2cnccc2[nH]1)n1c(-c2ccccc2F)ncc(N[C@H](C)c2ccc3oc4ccccc4c3c2)c1=O (single isomer, unassigned) [Compound 364, (R*)—N-((1H-pyrrolo[3,2-c]pyridine-2-yl)methyl)-2-(5-(((R)-1-(dibenzo[b,d]furan-2-yl)ethyl)amino)-2-(2-fluorophenyl)-6-oxopyrimidin-1(6H)-yl)propenamide]"
23,100 to 1000 nM,"CO[C@@H]1CO[C@H]2[C@@H]1OC[C@H]2Oc1ncc(NCCCc2ccccc2)c(=O)n1CC(=O)NCc1cc2cnccc2[nH]1 [Compound 87, N-((1H-pyrrolo[3,2-c]pyridine-2-yl)methyl)-2-(2-(((3R,3aR,6R,6aR)-6-methoxyhexahydrofuro[3,2-b]furan-3-yl)oxy)-6-oxo-5-((3-phenylpropyl)amino)pyrimidin-1(6H)-yl)acetamide]"
